# What was measured:
# Assay type in all cases: cell-based, human
# [1] = test system: second amniotic fluid-derived cell line; assay: 6 hour trichostatin A treatment, gene expression by RT-PCR (Example 10); settings: for Gata1 gene expression / HNF-3 beta gene expression / Insulin gene expression / Pdx-1 gene expression / sox17 gene expression: 1.25 μM for 6 h then removed
# Experimental: (§1) Amniotic fluid derived cells or pancreas-derived cells were seeded into 24-well tissue culture plates at a density of 5000/cm^2 and cultured in AMNIOMAX (Invitrogen) or DMEM with 10% FBS respectively under standard cell culture conditions until confluency was reached. Upon reaching confluency, amniotic fluid derived cells were treated with 1.25 μM trichostatin A and pancreas-derived stromal cells were treated with 5.0 μM trichostatin A. The media was changed 6 hours following the addition of trichostatin A and cultures were maintained for the remainder of the experiment. Several cell lines obtained from amniotic fluid (see Example 14) and pancreas (see Example 13) were tested.
# (§2) RNA samples were obtained at the time the trichostatin A was removed and 24 hours from the start of the experiment. The culture media was removed and cells were washed with PBS then collected in RLT Lysis Buffer with β-mercaptoethanol (Qiagen). RNA was purified using the RNeasy Mini Kit (Qiagen) and RNA quantity and quality was determined using a spectrophotometer. cDNA was made using the iScript cDNA synthesis kit (BioRad). Human pancreas cDNA was included as a control. Results were normalized against GAPDH expression levels.
# (§3) The expression levels of Sox17, HNF-3 beta, Pdx-1, Insulin, and Gata-1 were analyzed in amniotic-derived cells while the expression levels of glucagon, insulin, PDX-1 and HNF-3 beta were analyzed in pancreas-derived cells. 20 ng of cDNA was used in each RT-PCR reaction, which was performed on the Applied Biosystems 7500, according to the methods described in Example 15. Data was analyzed using the accompanying software.
# (§4) Real-time PCR amplifcation and quantitative analysis. Unless otherwise stated, all reagents were purchased from Applied Biosystems. Real-time PCR reactions were performed using the ABI PRISM™ 7500 Sequence Detection System. TAQMAN™ FAST UNIVERSAL PCR MASTER MIX™ (ABI, CA) was used with 20 ng of reverse transcribed RNA in a total reaction volume of 20 μl. Each cDNA sample was run in duplicate to allow correction of pipetting errors. Primers and FAM-labeled TAQMAN™ probes were used at concentrations of 200 nM. The level of expression for each target gene was normalized using the pre-developed Applied Biosystem's human glyceraldehyde-3-phosphate dehydrogenase (GAPDH) endogenous control kit. Primers and probes were designed using either ABI PRISM PRIMER EXPRESS™ software or a pre-developed ABI gene analysis kit. For each gene, either one of the primers or the probe were designed to be exon-boundary spanning. This eliminated the possibility of the primers/probe binding to any genomic DNA present. The primer and probe sets are listed as follows: Pdx-1 (Hs00426216), Insulin (Hs00355773), glucagon (Hs00174967), and FoxA2 (HNF 3-beta) (Hs00232764). The remaining primers were designed using the PRIMERS program (ABI, CA). After an initial 95° C. incubation for 20 sec, samples were cycled 40 times in two stages: a denaturation step at 95° C. for 3 sec, followed by an annealing/extension step at 60° C. for 30 sec.
# (§5) For each primer/probe set, a cycle time value was determined as the cycle number at which the fluorescence intensity of the PCR reaction reached a specific value in the middle of the exponential region of amplification. An increase in expression of a gene corresponded to a decrease in the number of cycles required for the fluorescence intensity to reach this value.
# [2] = test system: early passage (P5) pancreatic-derived stromal cell line; assay: as above; settings: for HNF-3 beta gene expression / Insulin gene expression / Pdx-1 gene expression / glucagon gene expression: 5 μM for 6 h then removed
# Experimental: as §1, §2, §3, §4, §5
# [3] = test system: Neonatal fibroblasts (Hs27); assay: Trichostatin A 48 h treatment, gene expression by Real-Time PCR (Example 1)
# Experimental: (§6) Neonatal fibroblasts, also designated Hs27, were derived from human foreskins and obtained from the American Type Culture Collection (ATCC). Panc-1 cells are a transformed cell line derived from a pancreatic epitheloid carcinoma of ductal origin, also obtained from ATCC.
# (§7) Fibroblasts or Panc-1 cells were seeded into a 6-well tissue culture plate at a density of 50,000 cells/cm^2. Both cell types were cultured in medium containing 10% FBS and DMEM under standard cell culture conditions (37° C., 5% CO2). After reaching confluence (2-3 days), trichostatin A diluted in dimethyl sulfoxide (DMSO) and medium was added at either 2.5 μM or 5 μM to the cultures. Parallel cultures were treated with an equivalent concentration of DMSO as a vehicle control.
# (§8) RNA samples were obtained from the treated cultures 48 hours after the addition of trichostatin A or DMSO. The culture medium was removed, the cells were washed with phosphate buffered saline (PBS), and RLT Lysis buffer containing β-mercaptoethanol (Qiagen) was added. The samples were homogenized using Qiashredder columns (Qiagen), and RNA was purified using the RNeasy Mini Kit (Qiagen). RNA quantity and quality was determined using a spectrophotometer, and cDNA was made using the iScript cDNA synthesis kit (BioRad).
# (§9) The expression levels of Sox17, HNF-3 beta, Pdx-1, insulin, and glucagon were determined by Real-Time PCR (RT-PCR), as described in Example 15. Samples of 20 ng cDNA were used in each reaction. RT-PCR reactions were performed on the Applied Biosystems 7500, and data was analyzed using the accompanying software. Human pancreas cDNA was included as a positive control. Results were normalized against GAPDH expression levels.
# as §4, §5
# Panc-1 cells = assay: as above; settings: for GAPDH gene expression / HNF-3 beta gene expression / Insulin gene expression / PDX-1 gene expression / Sox17 gene expression / glucagon gene expression: 48 hours
# Experimental: as §6, §7, §8, §9, §4, §5
# [4] = 5.0 μM, following 6 h treatment
# [5] = Panc-1 cells treated for 48 hours
structure (smiles),measurement,setting,value
CC(/C=C/C(=O)NO)=C\[C@@H](C)C(=O)c1ccc(N(C)C)cc1 [trichostatin A],Gata1 gene expression,[1]; 6 hrs,nd (not detectable at >40 cycles by RT-PCR)
same,HNF-3 beta gene expression,[1]; 6 hrs,+++ (detectable at less than 35 cycles by RT-PCR with SE less than 0.9)
same,Insulin gene expression,[1]; 6 hrs,nd (not detectable at >40 cycles by RT-PCR)
same,Pdx-1 gene expression,[1]; 6 hrs,+++ (detectable at less than 35 cycles by RT-PCR with SE less than 0.9)
same,sox17 gene expression,[1]; 6 hrs,+++ (detectable at less than 35 cycles by RT-PCR with SE less than 0.9)
same,Gata1 gene expression,[1]; 24 hrs,nd (not detectable at >40 cycles by RT-PCR)
same,HNF-3 beta gene expression,[1]; 24 hrs,+ (detectable between 35 and 40 cycles by RT-PCR)
same,Insulin gene expression,[1]; 24 hrs,nd (not detectable at >40 cycles by RT-PCR)
same,Pdx-1 gene expression,[1]; 24 hrs,nd (not detectable at >40 cycles by RT-PCR)
same,sox17 gene expression,[1]; 24 hrs,+++ (detectable at less than 35 cycles by RT-PCR with SE less than 0.9)
same,HNF-3 beta RT-PCR detection cycle,"[1]; 1.25 μM, 6 hours of treatment",31 cycles
same,Pdx-1 RT-PCR detection cycle,"[1]; 1.25 μM, 6 hours of treatment",35 cycles
same,HNF-3 beta RT-PCR detection cycle,"[1]; 1.25 μM, following removal",35 cycles
same,HNF-3 beta gene expression,[2]; 6 hrs,+++ (detectable at less than 35 cycles by RT-PCR with SE less than 0.9)
same,Insulin gene expression,[2]; 6 hrs,nd (not detectable at >40 cycles by RT-PCR)
same,Pdx-1 gene expression,[2]; 6 hrs,+ (detectable between 35 and 40 cycles by RT-PCR)
same,glucagon gene expression,[2]; 6 hrs,+ (detectable between 35 and 40 cycles by RT-PCR)
same,HNF-3 beta gene expression,[2]; 24 hrs,nd (not detectable at >40 cycles by RT-PCR)
same,Insulin gene expression,[2]; 24 hrs,+++ (detectable at less than 35 cycles by RT-PCR with SE less than 0.9)
same,Pdx-1 gene expression,[2]; 24 hrs,nd (not detectable at >40 cycles by RT-PCR)
same,glucagon gene expression,[2]; 24 hrs,+ (detectable between 35 and 40 cycles by RT-PCR)
same,Insulin RT-PCR detection cycle,"[2]; 5.0 μM, after trichostatin A was removed from the media",32 cycles
same,HNF-3 beta RT-PCR detection cycle,[2]; [4],35 cycles
same,glucagon RT-PCR detection cycle,[2]; [4],37 cycles
same,Pdx-1 RT-PCR detection cycle,"[2]; 5.0 μM, following treatment (38 before treatment)",35 cycles
same,GAPDH gene expression,[3]; 2.5 μM,+++ (detectable at less than 35 cycles by RT-PCR with SE less than 0.9)
same,HNF-3 beta gene expression,[3]; 2.5 μM,+++ (detectable at less than 35 cycles by RT-PCR with SE less than 0.9)
same,Insulin gene expression,[3]; 2.5 μM,nd (not detectable at >40 cycles by RT-PCR)
same,PDX-1 gene expression,[3]; 2.5 μM,+ (detectable at greater than 35–40 cycles by RT-PCR)
same,Sox17 gene expression,[3]; 2.5 μM,+++ (detectable at less than 35 cycles by RT-PCR with SE less than 0.9)
same,glucagon gene expression,[3]; 2.5 μM,+++ (detectable at less than 35 cycles by RT-PCR with SE less than 0.9)
same,GAPDH gene expression,[3]; 5.0 μM,+++ (detectable at less than 35 cycles by RT-PCR with SE less than 0.9)
same,HNF-3 beta gene expression,[3]; 5.0 μM,+++ (detectable at less than 35 cycles by RT-PCR with SE less than 0.9)
same,Insulin gene expression,[3]; 5.0 μM,nd (not detectable at >40 cycles by RT-PCR)
same,PDX-1 gene expression,[3]; 5.0 μM,+ (detectable at greater than 35–40 cycles by RT-PCR)
same,Sox17 gene expression,[3]; 5.0 μM,+++ (detectable at less than 35 cycles by RT-PCR with SE less than 0.9)
same,glucagon gene expression,[3]; 5.0 μM,+++ (detectable at less than 35 cycles by RT-PCR with SE less than 0.9)
same,GAPDH gene expression,Panc-1 cells; 2.5 μM,+++ (detectable at less than 35 cycles by RT-PCR with SE less than 0.9)
same,HNF-3 beta gene expression,Panc-1 cells; 2.5 μM,+++ (detectable at less than 35 cycles by RT-PCR with SE less than 0.9)
same,Insulin gene expression,Panc-1 cells; 2.5 μM,+ (detectable at greater than 35–40 cycles by RT-PCR)
same,PDX-1 gene expression,Panc-1 cells; 2.5 μM,+++ (detectable at less than 35 cycles by RT-PCR with SE less than 0.9)
same,Sox17 gene expression,Panc-1 cells; 2.5 μM,+++ (detectable at less than 35 cycles by RT-PCR with SE less than 0.9)
same,glucagon gene expression,Panc-1 cells; 2.5 μM,+++ (detectable at less than 35 cycles by RT-PCR with SE less than 0.9)
same,GAPDH gene expression,Panc-1 cells; 5.0 μM,+++ (detectable at less than 35 cycles by RT-PCR with SE less than 0.9)
same,HNF-3 beta gene expression,Panc-1 cells; 5.0 μM,+++ (detectable at less than 35 cycles by RT-PCR with SE less than 0.9)
same,Insulin gene expression,Panc-1 cells; 5.0 μM,+ (detectable at greater than 35–40 cycles by RT-PCR)
same,PDX-1 gene expression,Panc-1 cells; 5.0 μM,+++ (detectable at less than 35 cycles by RT-PCR with SE less than 0.9)
same,Sox17 gene expression,Panc-1 cells; 5.0 μM,+++ (detectable at less than 35 cycles by RT-PCR with SE less than 0.9)
same,glucagon gene expression,Panc-1 cells; 5.0 μM,+++ (detectable at less than 35 cycles by RT-PCR with SE less than 0.9)
same,Pdx-1 expression with 5.0 μm versus 2.5 μM trichostatin A,Panc-1 cells; [5],11 times higher
same,Sox-17 expression with 5.0 μm versus 2.5 μM trichostatin A,Panc-1 cells; [5],60 times higher
same,glucagon expression with 5.0 μm versus 2.5 μM trichostatin A,Panc-1 cells; [5],5 times higher
